Experiments:
[1] = target: T1, E3 ubiquitin-protein ligase TRIM33 (Homo sapiens, UniProt Q9UPN9); assay: Inhibition of recombinant TRIM33 PHD bromodomain (unknown origin) using biotinylated H3 peptide (H3K9me3K18ac) by AlphaScreen assay
T1 sequence (Q9UPN9 whole entry): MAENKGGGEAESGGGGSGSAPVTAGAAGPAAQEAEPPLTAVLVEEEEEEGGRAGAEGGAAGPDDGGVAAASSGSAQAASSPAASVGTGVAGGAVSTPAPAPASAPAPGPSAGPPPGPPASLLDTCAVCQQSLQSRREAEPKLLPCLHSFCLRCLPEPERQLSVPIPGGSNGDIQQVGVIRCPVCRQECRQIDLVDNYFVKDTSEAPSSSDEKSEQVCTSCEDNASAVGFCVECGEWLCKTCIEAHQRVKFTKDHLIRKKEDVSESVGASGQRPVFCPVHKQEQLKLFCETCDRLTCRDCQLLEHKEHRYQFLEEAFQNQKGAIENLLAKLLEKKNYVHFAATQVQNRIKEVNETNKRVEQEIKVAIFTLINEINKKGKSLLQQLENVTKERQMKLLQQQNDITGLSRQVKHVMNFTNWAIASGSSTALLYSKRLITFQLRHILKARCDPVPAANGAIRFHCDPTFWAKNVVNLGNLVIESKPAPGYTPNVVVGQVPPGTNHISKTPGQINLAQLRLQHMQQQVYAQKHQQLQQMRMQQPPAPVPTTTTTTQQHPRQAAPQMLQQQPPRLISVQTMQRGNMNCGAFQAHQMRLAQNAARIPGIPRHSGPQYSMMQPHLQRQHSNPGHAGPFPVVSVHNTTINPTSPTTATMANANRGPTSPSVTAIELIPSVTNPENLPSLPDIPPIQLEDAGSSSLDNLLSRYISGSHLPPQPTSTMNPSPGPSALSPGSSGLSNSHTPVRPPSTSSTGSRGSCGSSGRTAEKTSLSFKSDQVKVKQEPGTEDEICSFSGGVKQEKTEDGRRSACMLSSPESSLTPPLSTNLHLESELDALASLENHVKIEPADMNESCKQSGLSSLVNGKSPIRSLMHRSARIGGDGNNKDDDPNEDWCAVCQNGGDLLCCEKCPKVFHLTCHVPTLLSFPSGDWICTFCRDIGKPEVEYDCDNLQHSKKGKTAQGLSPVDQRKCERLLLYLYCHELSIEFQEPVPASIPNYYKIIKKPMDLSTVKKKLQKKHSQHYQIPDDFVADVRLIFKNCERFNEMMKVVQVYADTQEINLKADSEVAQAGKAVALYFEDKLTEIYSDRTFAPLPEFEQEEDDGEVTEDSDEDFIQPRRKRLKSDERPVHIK

[2] = target: T2, Transcription intermediary factor 1-alpha (Homo sapiens, UniProt O15164); assay: Inhibition of recombinant TRIM24 (unknown origin) using biotinylated H3 peptide (H3K9me3K18ac) by AlphaScreen assay
T2 sequence (O15164 whole entry): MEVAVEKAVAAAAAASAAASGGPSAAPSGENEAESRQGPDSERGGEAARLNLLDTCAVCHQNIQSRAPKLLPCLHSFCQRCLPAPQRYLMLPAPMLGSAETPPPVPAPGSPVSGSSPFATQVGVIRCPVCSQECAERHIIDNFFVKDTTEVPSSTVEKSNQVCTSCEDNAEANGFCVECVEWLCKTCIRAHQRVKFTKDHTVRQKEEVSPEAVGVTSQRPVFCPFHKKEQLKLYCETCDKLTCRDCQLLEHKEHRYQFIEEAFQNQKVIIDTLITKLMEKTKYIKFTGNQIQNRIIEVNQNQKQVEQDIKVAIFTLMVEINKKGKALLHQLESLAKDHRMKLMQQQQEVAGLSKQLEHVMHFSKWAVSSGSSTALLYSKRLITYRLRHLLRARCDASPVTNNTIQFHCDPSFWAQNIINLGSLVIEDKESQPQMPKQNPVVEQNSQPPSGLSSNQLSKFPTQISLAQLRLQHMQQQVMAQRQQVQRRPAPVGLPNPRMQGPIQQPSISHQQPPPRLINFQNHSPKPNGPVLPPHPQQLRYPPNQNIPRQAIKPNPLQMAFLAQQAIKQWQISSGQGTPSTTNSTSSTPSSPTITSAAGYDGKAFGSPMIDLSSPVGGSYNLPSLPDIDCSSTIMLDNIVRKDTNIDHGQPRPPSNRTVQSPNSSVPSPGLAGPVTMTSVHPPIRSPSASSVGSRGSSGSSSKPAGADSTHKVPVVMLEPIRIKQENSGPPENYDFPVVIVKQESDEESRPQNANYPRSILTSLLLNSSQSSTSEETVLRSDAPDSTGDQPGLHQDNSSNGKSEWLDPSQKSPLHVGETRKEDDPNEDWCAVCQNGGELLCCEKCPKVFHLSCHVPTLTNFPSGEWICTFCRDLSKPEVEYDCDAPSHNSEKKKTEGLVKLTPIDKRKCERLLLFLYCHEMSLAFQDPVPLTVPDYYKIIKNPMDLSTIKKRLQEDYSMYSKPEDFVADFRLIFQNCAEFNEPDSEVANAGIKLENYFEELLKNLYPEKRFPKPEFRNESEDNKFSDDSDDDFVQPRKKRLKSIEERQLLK

[3] = organism: Homo sapiens; assay: Selectivity index, ratio of IC50 for recombinant TRIM24 (unknown origin) to IC50 for recombinant TRIM33 PHD bromodomain (unknown origin)

Structure (SMILES)	IC50 [1] [µM]	IC50 [2] [µM]	Ratio IC50 [3]
CCCOc1ccn2c(C(C)=O)cc(-c3nc4cnccn4c3NCCN3CCOCC3)c2c1	151	4980	32.9
COCCNc1c(-c2nc[nH]c2C)nc2ccccn12	16.3	35.4	2.17
COc1ccc(Nc2c(-c3nc[nH]c3C)nc3cnccn23)cc1	14.7	7.32	0.5
Cc1nc(-c2nc3ccc(Br)cn3c2NCCN2CCOCC2)c[nH]1	450	194	0.43
Cc1nc(-c2nc3cnccn3c2NCCN2CCOCC2)c[nH]1	131	1890	14.5
COCCNc1c(-c2ccc3nccn3c2)nc2cnccn12	190	5450	28.6
Cc1nc(-c2nc3ccccn3c2NCc2ccc(C#N)cc2)c[nH]1	26.8	267	9.97
c1ccn2c(NC3CCCCC3)c(-c3ccc4nccn4c3)nc2c1	13.8	249	18.1
COC(=O)c1ccc2nc(-c3nc[nH]c3C)c(Nc3ccc(OC)cc3)n2c1	19.3	77.2	3.99
COC(=O)c1ccc2nc(-c3c[nH]c(C)n3)c(NCCN3CCOCC3)n2c1	71.4	2870	40.3
Cc1[nH]cnc1-c1nc2cnccn2c1NCc1ccc(C#N)cc1	121	98.4	0.82
COC(=O)c1ccc2nc(-c3ccc4nccn4c3)c(Nc3ccc(OC)cc3)n2c1	22.2	375	16.9
Cc1nc(-c2nc3ccccn3c2NC2CCCCC2)c[nH]1	5.9	96.5	16.4
CCCOc1ccn2c(C(C)=O)cc(-c3nc4cnccn4c3NCCc3ccc(OC)c(OC)c3)c2c1	23.7	835	35.3
CCCOc1ccn2c(C(C)=O)cc(-c3nc4ccccn4c3NCCN3CCOCC3)c2c1	69.6	250	3.6
CCCOc1ccn2c(C(C)=O)cc(-c3nc4ccc(C(=O)OC)cn4c3Nc3ccc(OC)cc3)c2c1	48.6	355	7.3
COC(=O)c1ccc2nc(-c3nc[nH]c3C)c(NCc3ccc(C#N)cc3)n2c1	113	319	2.83
CCCOc1ccn2c(C(C)=O)cc(-c3nc4ccccn4c3NC3CCCCC3)c2c1	8.72	142	16.2

Structure (SMILES)	IC50 [1] [µM]	IC50 [2] [µM]	Ratio IC50 [3]
CCCOc1ccn2c(C(C)=O)cc(-c3nc4ccccn4c3Nc3ccc(OC)cc3)c2c1	9.6	159	16.6
CCCOc1ccn2c(C(C)=O)cc(-c3nc4cnccn4c3Nc3ccc(OC)cc3)c2c1	38.5	226	5.87
COc1ccc(CCNc2c(-c3ccc4nccn4c3)nc3ccc(Br)cn23)cc1OC	20.4	283	13.9
COc1ccc(CCNc2c(-c3nc[nH]c3C)nc3ccccn23)cc1OC	1.36	31.7	23.2
CCCOc1ccn2c(C(C)=O)cc(-c3nc4ccccn4c3NCCOC)c2c1	47.5	445	9.36
COCCNc1c(-c2c[nH]c(C)n2)nc2ccccn12	17.2	141	8.16
COc1ccc(Nc2c(-c3ccc4nccn4c3)nc3ccccn23)cc1	26	153	5.88
COC(=O)c1ccc2nc(-c3c[nH]c(C)n3)c(NCCc3ccc(OC)c(OC)c3)n2c1	7.17	622	86.8
COC(=O)c1ccc2nc(-c3c[nH]c(C)n3)c(NC3CCCCC3)n2c1	18.9	180	9.48
Cc1nc(-c2nc3cnccn3c2NCc2ccc(C#N)cc2)c[nH]1	207	54.8	0.26
Cc1[nH]cnc1-c1nc2ccc(Br)cn2c1NCc1ccc(C#N)cc1	10.1	29.3	2.91
N#Cc1ccc(CNc2c(-c3ccc4nccn4c3)nc3ccc(Br)cn23)cc1	48.1	296	6.16
COC(=O)c1ccc2nc(-c3ccc4nccn4c3)c(NCCc3ccc(OC)c(OC)c3)n2c1	15.7	5980	380
COc1ccc(Nc2c(-c3ccc4nccn4c3)nc3ccc(Br)cn23)cc1	70.3	224	3.19
CCCOc1ccn2c(C(C)=O)cc(-c3nc4cnccn4c3NCc3ccc(C#N)cc3)c2c1	66	819	12.4
N#Cc1ccc(CNc2c(-c3ccc4nccn4c3)nc3ccccn23)cc1	87.4	2080	23.8
Cc1[nH]cnc1-c1nc2ccccn2c1NCc1ccc(C#N)cc1	16.4	42.8	2.61
c1cn2c(NCCN3CCOCC3)c(-c3ccc4nccn4c3)nc2cn1	259	2190	8.45

Source: ChEMBL document CHEMBL4418499, “Inhibitors of trim33 and methods of use” (2018)
